The record followed here is paper PMC10526209, “Systematic Exploration of Functional Group Relevance for Anti-Leishmanial Activity of Anisomycin” (Biomedicines, 2023).

The structures appear in SMILES notation. Counter-ions that a name gives are not always drawn.

Holding throughout (format): biochemical
Experiment [1] relates to rabbit reticulocytes (RR). Description: Cell-free transcription-translation inhibition in rabbit reticulocytes. As to conditions: inhibition of translation in rabbit reticulocyte lysate, luciferase reporter, 90 min at 30 °C. On the procedure:
(§1) Cytosolic ribosome susceptibility and selectivity were assessed through three different cell-free transcription-translation assays: (1) An extract of E. coli (S30, Promega, Madison, WI, USA), (2) in rabbit reticulocytes (Promega), and (3) in L. tarentolae lysate (Jena Bioscience, Jena, Germany). Three plasmids, compatible with each extract system, were used in this study: pBESTlucTM (Promega) for the prokaryotic translation assay, Luciferase T7 DNA (Promega) for the reticulocytes, and pLEXSY-invitro2-EGFP (Jena Bioscience) for Leishmania. Firefly luciferase was used as a reporter gene for the bacterial and reticulocyte systems, and EGFP for Leishmania. […] Assays were performed in white polystyrene 96-well flat-bottom plates (Nunc, Roskilde, Denmark) for luciferase and black polystyrene 384-well flat-bottom plates (Greiner, Kremsmunster, Austria) for EGFP. Incubation times were 60 min at 37 °C, 90 min at 30 °C, and 120 min at 26 °C for the bacterial, reticulocyte, and Leishmania systems, respectively. Reactions were stopped by quick snap cooling followed by a 5 min incubation on ice. Luciferase activity was measured for each well following the addition of 50 μL of Luciferase Assay reagent (Promega, Madison, WI, USA) with an automatic reagent injector (Tecan, Mannedorf, Switzerland) by recording the chemical-luminescence signal. EGFP fluorescence (λex = 488 nm; λem = 507 nm) was recorded on a Tecan Infinite R®F200 microplate reader (Tecan). Extracts lacking the circular DNA template were used as a negative control to calculate the fluorescence/chemical luminescence background. Reaction mixtures without compounds were used as positive controls and were regarded as 100% translation. Paromomycin was used as a control reagent in all assays. At least six different concentrations were used to plot each translation inhibition curve; experiments were performed in three independent repeats in duplicate. Half maximal inhibition concentrations (IC50) values were calculated from the concentration-response fitting curves using GraFit7.0.3 software.
(In general: Reporter assays use an easily measured gene product as a stand-in for the process of interest.)

Another experiment has as its system L. tarentolae lysate. The experiment can be described thus: Cell-free transcription-translation inhibition in L. tarentolae lysate. The settings on record: for IC50: inhibition of translation in active cell lysate, EGFP reporter, 120 min at 26 °C. The procedure: as §1
The next experiment relates to extract of E. coli (S30). The experiment can be described thus: Cell-free transcription-translation inhibition in E. coli S30 extract. The settings on record: for IC50: inhibition of translation in active cell lysate, luciferase reporter, 60 min at 37 °C. On the procedure:
as §1

In the case of `COc1ccc(C[C@H]2NC[C@H](O)[C@H]2OC(C)=O)cc1` [Analog 1, Anisomycin], the results for the IC50 (in experiment [1]; in the experiment on L. tarentolae lysate; in the experiment with extract of E. coli (S30)) were 0.1 ± 0.02 µM, 0.55 ± 0.03 µM and over 500 µM, respectively. The “effect on E. coli (in words)” value in the experiment on extract of E. coli (S30) (translation assay) is “no effect”.

For the compound `COc1ccc(C[C@H]2NC[C@H](O)[C@H]2O)cc1` [Analog 2, (2R,3S,4S)-3,4-dihydroxy-2-(4-methoxybenzyl)-pyrrolidine], the results for the IC50 (in experiment [1]; with L. tarentolae lysate; in the experiment on extract of E. coli (S30)) were over 1000 µM, over 100 µM and over 1000 µM, respectively.

With `COc1ccc(C[C@@H]2[C@H](OC(C)=O)[C@@H](O)CN2C)cc1` [Analog 8, (2R,3S,4S)-1-methyl-4-hydroxy-2-(4-methoxybenzyl)-pyrrolidin-3-yl acetate], the figures for the IC50 (in experiment [1]; in the experiment with L. tarentolae lysate; in the experiment with extract of E. coli (S30)) were 25.5 ± 3.6 µM, over 100 µM and over 1000 µM, respectively.

In the case of `COc1ccc(C[C@H]2NC[C@H](OC(C)=O)[C@H]2OC(C)=O)cc1` [Analog 9, (2R,3S,4S)-3,4-diacetoxy-2-(4-methoxybenzyl)-pyrrolidine hydrochloride], the IC50 – broadly, the concentration that gives 50% inhibition – in experiment [1] is 25.7 ± 8.5 µM; with L. tarentolae lysate, over 100 µM; with extract of E. coli (S30) it was over 1000 µM.

In the case of `COc1ccc(C[C@H]2NC[C@H](OC)[C@H]2OC)cc1` [Analog 10, (2R,3S,4S)-3,4-dimethoxy-2-(4-methoxybenzyl)-pyrrolidine hydrochloride], the concentration for half-maximal inhibition (IC50) (in experiment [1]; with L. tarentolae lysate; in the experiment with extract of E. coli (S30)) was over 1000 µM each time.

As to `COc1ccc(C[C@H]2NC[C@H](O)[C@H]2OC)cc1` [Analog 11, (2R,3S,4S)-3-methoxy-4-hydroxy-2-(4-methoxybenzyl)-pyrrolidine hydrochloride], the IC50 in experiment [1] is 70.9 ± 8.3 µM; with L. tarentolae lysate, 24 ± 2.5 µM; in the experiment on extract of E. coli (S30), over 1000 µM.

Turning to `COc1ccc(C[C@H]2NC[C@H](O)[C@H]2OC(C)=O)cc1I` [Analog 16, (2R,3S,4S)-4-hydroxy-2-(3-iodo-4-methoxybenzyl)-pyrrolidin-3-yl acetate], the 50% inhibitory concentration (IC50) in experiment [1] is 73.7 ± 1.7 µM; in the experiment with L. tarentolae lysate, over 1000 µM; in the experiment on extract of E. coli (S30) it was over 1000 µM. For the same compound, the “activity against L. tarentolae translation / anti-protozoan activity (in words)” value in the experiment with L. tarentolae lysate was “abolished anti-protozoan activity”.

For the compound `CC(=O)O[C@@H]1[C@@H](O)CN[C@@H]1Cc1ccc(O)cc1` [Analog 17, (2R,3S,4S)-4-hydroxy-2-(4-hydroxybenzyl)-pyrrolidin-3-yl acetate], the half-maximal inhibitory concentration (IC50) in experiment [1] is 6.2 ± 0.45 µM; with L. tarentolae lysate, 53.7 ± 6.1 µM; with extract of E. coli (S30), over 200 µM.

Regarding `CC(=O)O[C@@H]1[C@@H](O)CN[C@@H]1Cc1cc(CN(C)C)c(O)c(CN(C)C)c1` [Analog 19, (2R,3S,4S)-4-hydroxy-2-[3,5-di-(dimethylaminomethyl)-4-hydroxybenzyl]-pyrrolidin-3-yl acetate], the results for the IC50 (in experiment [1]; in the experiment with L. tarentolae lysate; with extract of E. coli (S30)) were 70.7 ± 7.3 µM, over 1000 µM and over 200 µM, respectively. In the experiment on L. tarentolae lysate, the “activity against L. tarentolae translation / anti-protozoan activity (in words)” value is recorded as “abolished anti-protozoan activity”.

In the case of `CC(=O)O[C@@H]1[C@@H](O)CN[C@@H]1Cc1cc(CN2CCOCC2)c(O)c(CN2CCOCC2)c1` [Analog 20, (2R,3S,4S)-4-hydroxy-2-[3,5-di-(morpholinomethyl)-4-hydroxybenzyl]-pyrrolidin-3-yl acetate], the IC50 (in experiment [1]; with L. tarentolae lysate; with extract of E. coli (S30)) was over 1000 µM in each case. In addition, the “activity against L. tarentolae translation / anti-protozoan activity (in words)” value with L. tarentolae lysate was “abolished anti-protozoan activity”.

For `CC(=O)O[C@@H]1[C@@H](O)CN[C@@H]1Cc1ccc(OCc2ccccc2)cc1` [Analog 22c, (2R,3S,4S)-4-hydroxy-2-(4-benzyloxybenzyl)-pyrrolidin-3-yl acetate], the figures for the IC50 (in experiment [1]; in the experiment with L. tarentolae lysate; with extract of E. coli (S30)) were 0.9 ± 0.2 µM, 7.96 ± 1.02 µM and over 200 µM, respectively.

In the case of `NC[C@@H]1O[C@H](O[C@H]2[C@@H](O)[C@H](O[C@@H]3[C@@H](O)[C@H](N)C[C@H](N)[C@H]3O[C@H]3O[C@H](CO)[C@@H](O)[C@H](O)[C@H]3N)O[C@@H]2CO)[C@H](N)[C@@H](O)[C@@H]1O` [Paromomycin, reference compound], the IC50 in experiment [1] stood at 21 ± 1.1 µM; in the experiment with L. tarentolae lysate it was 3.62 ± 0.09 µM; in the experiment with extract of E. coli (S30), 0.051 ± 0.005 µM.
